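Compound exposure: 48 hours, 5 concentrations, 96-well plates. TGI denotes the concentration required for complete inhibition of growth.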
How the values were obtained:
Assay in all cases: NCI tumour cell line growth inhibition, 48 h
MCF7 breast = tested on: MCF7 breast
KM12 colon = tested on: KM12 colon
SF-539 CNS = tested on: SF-539 CNS
HOP-92 NSCLC = tested on: HOP-92 NSCLC
SW-620 colon = tested on: SW-620 colon
MDA-MB-231 breast = tested on: MDA-MB-231 breast
OVCAR-5 ovarian = tested on: OVCAR-5 ovarian
SNB-19 CNS = tested on: SNB-19 CNS
U251 CNS = tested on: U251 CNS
SK-MEL-28 melanoma = tested on: SK-MEL-28 melanoma
IGROV1 ovarian = tested on: IGROV1 ovarian
TK-10 renal = tested on: TK-10 renal
UACC-257 melanoma = tested on: UACC-257 melanoma
HL-60(TB) leukemia = tested on: HL-60(TB) leukemia

O=C1c2cc([N+](=O)[O-])sc2C(=O)c2cc([N+](=O)[O-])sc21
TGI (MCF7 breast): 9.92 µM
TGI (KM12 colon): 14.8 µM
TGI (SF-539 CNS): 8.51 µM
TGI (HOP-92 NSCLC): 4.04 µM
TGI (SW-620 colon): 3.37 µM
TGI (MDA-MB-231 breast): 5.66 µM
TGI (OVCAR-5 ovarian): 15.5 µM
TGI (SNB-19 CNS): 8.9 µM
TGI (U251 CNS): 3.38 µM
TGI (SK-MEL-28 melanoma): 8.3 µM
TGI (IGROV1 ovarian): 3.07 µM
TGI (TK-10 renal): 13 µM
TGI (UACC-257 melanoma): 11.8 µM

O=c1oc2ccccc2n1CCCn1c(=O)oc2ccccc21
TGI (MCF7 breast): > 100 µM
TGI (KM12 colon): > 100 µM
TGI (HL-60(TB) leukemia): > 100 µM
TGI (SF-539 CNS): > 100 µM
TGI (SW-620 colon): > 100 µM
TGI (MDA-MB-231 breast): > 100 µM
TGI (OVCAR-5 ovarian): > 100 µM
TGI (SNB-19 CNS): > 100 µM
TGI (U251 CNS): > 100 µM
TGI (SK-MEL-28 melanoma): > 100 µM
TGI (IGROV1 ovarian): > 100 µM
TGI (TK-10 renal): > 100 µM
TGI (UACC-257 melanoma): > 100 µM

COc1ccc(/C=C2/SC(c3c(O)ccc4ccccc34)N(NC(=O)CCCCCCCCC(=O)NN3C(=O)/C(=C\c4ccc(OC)c(OC)c4)SC3c3c(O)ccc4ccccc34)C2=O)cc1OC (centres undefined)
TGI (MCF7 breast): > 100 µM
TGI (KM12 colon): > 100 µM
TGI (SF-539 CNS): 46 µM
TGI (HOP-92 NSCLC): 23.3 µM
TGI (SW-620 colon): > 100 µM
TGI (MDA-MB-231 breast): > 91.7 µM
TGI (OVCAR-5 ovarian): > 100 µM
TGI (SNB-19 CNS): > 91.7 µM
TGI (U251 CNS): 96.8 µM
TGI (SK-MEL-28 melanoma): > 100 µM
TGI (IGROV1 ovarian): 10.7 µM
TGI (TK-10 renal): > 100 µM
TGI (UACC-257 melanoma): > 28.5 µM

COc1ccc2c(c1)C=C(C(C)(C)C)NS2(=O)=O
TGI (KM12 colon): > 100 µM
TGI (HL-60(TB) leukemia): > 100 µM
TGI (SF-539 CNS): > 100 µM
TGI (HOP-92 NSCLC): > 100 µM
TGI (SW-620 colon): > 100 µM
TGI (OVCAR-5 ovarian): > 100 µM
TGI (SNB-19 CNS): > 100 µM
TGI (U251 CNS): > 100 µM
TGI (SK-MEL-28 melanoma): > 100 µM
TGI (IGROV1 ovarian): > 100 µM
TGI (TK-10 renal): > 100 µM
TGI (UACC-257 melanoma): > 100 µM

C[C@H](CO)C1=CC(C#C[Si](C)(C)C)N(C(=O)Oc2ccccc2)c2ccccc21 (some centres undefined)
TGI (KM12 colon): 21.8 µM
TGI (HL-60(TB) leukemia): 47.2 µM
TGI (SF-539 CNS): 33.9 µM
TGI (HOP-92 NSCLC): 28.7 µM
TGI (SW-620 colon): > 100 µM
TGI (MDA-MB-231 breast): 23.4 µM
TGI (OVCAR-5 ovarian): 30.5 µM
TGI (SNB-19 CNS): 29.8 µM
TGI (U251 CNS): 28 µM
TGI (SK-MEL-28 melanoma): 37.5 µM
TGI (IGROV1 ovarian): 29.9 µM
TGI (TK-10 renal): 31.4 µM
TGI (UACC-257 melanoma): 28.3 µM

CC1(C)CC[C@]2(C(=O)O)CC[C@]3(C)C(=CC[C@@H]4[C@@]5(C)CC[C@H](OC6OC(CO)C(O)C(O)C6O)C(C)(C)[C@@H]5CC[C@]43C)[C@@H]2C1 (some centres undefined)
TGI (MCF7 breast): 3.91 µM
TGI (KM12 colon): 2.86 µM
TGI (HL-60(TB) leukemia): 3.83 µM
TGI (HOP-92 NSCLC): 3.06 µM
TGI (SW-620 colon): 3.51 µM
TGI (MDA-MB-231 breast): 3.07 µM
TGI (OVCAR-5 ovarian): 4.12 µM
TGI (SNB-19 CNS): 2.89 µM
TGI (U251 CNS): 3.05 µM
TGI (SK-MEL-28 melanoma): 3.69 µM
TGI (IGROV1 ovarian): 3.06 µM
TGI (UACC-257 melanoma): 3.13 µM

CCCCN1CCC(O)(c2cc(C(=O)O)[nH]c2-c2cc(C)no2)C1=O (centres undefined)
TGI (MCF7 breast): > 100 µM
TGI (KM12 colon): > 100 µM
TGI (HOP-92 NSCLC): > 100 µM
TGI (SW-620 colon): > 100 µM
TGI (MDA-MB-231 breast): > 100 µM
TGI (OVCAR-5 ovarian): > 100 µM
TGI (SNB-19 CNS): > 100 µM
TGI (U251 CNS): > 100 µM
TGI (SK-MEL-28 melanoma): > 100 µM
TGI (IGROV1 ovarian): > 100 µM
TGI (TK-10 renal): > 100 µM
TGI (UACC-257 melanoma): > 100 µM

C(#C[C@@]12CCC[C@@H]1N(Cc1ccccc1)CO2)c1ccc2c(c1)OCO2
TGI (MCF7 breast): > 100 µM
TGI (KM12 colon): > 100 µM
TGI (SF-539 CNS): > 100 µM
TGI (SW-620 colon): > 100 µM
TGI (MDA-MB-231 breast): > 100 µM
TGI (OVCAR-5 ovarian): > 100 µM
TGI (SNB-19 CNS): > 100 µM
TGI (U251 CNS): > 100 µM
TGI (SK-MEL-28 melanoma): > 100 µM
TGI (UACC-257 melanoma): > 100 µM

C=CC(C)(C)n1cc(C2=C(O)C(=O)C(c3c(CC=C(C)C)[nH]c4ccccc34)=C(O)C2=O)c2ccccc21
TGI (KM12 colon): 2.63 µM
TGI (HL-60(TB) leukemia): 4.69 µM
TGI (HOP-92 NSCLC): 3.35 µM
TGI (SW-620 colon): 13.5 µM
TGI (MDA-MB-231 breast): 7.78 µM
TGI (OVCAR-5 ovarian): 10.1 µM
TGI (SNB-19 CNS): 10.8 µM
TGI (U251 CNS): 3.33 µM
TGI (SK-MEL-28 melanoma): 2.03 µM
TGI (IGROV1 ovarian): 2.45 µM
TGI (UACC-257 melanoma): 9.3 µM
